Tests used:
[1] = system: PC-3 cells; experiment: Inhibition of proliferation: CyQuant PC-3; assay type: cell-based; details: 72 h; PC-3 human prostate carcinoma cells, incubated with compounds for 3 days, CyQuant NF DNA dye
Description: (§1) • GFP-4E-BP1 substrate; Invitrogen order no. PV4759 • Lanthascreen Tb-anti-p4E-BP1 (pThr46) Antibody Kit; Invitrogen order no. PV4758 • FRAP1 (mTOR) kinase; Invitrogen order no. […] Preparation of Reagents: Note: Thaw and keep mTOR, the substrate, ATP, and the antibody on ice prior to making working dilutions. Working dilutions of these components can be kept at room temperature for short periods of time the day of use. 1. Add 2 ml of 5× Assay Buffer to 8 ml water to prepare 10 ml of 1× Assay Buffer. Note: The concentration of 1× Assay Buffer is 50 mM HEPES pH 7.5, 0.01% Polysorbate 20, 1 mM EGTA, and 10 mM MnCl2. 2. Prepare Antibody/EDTA Solution by first adding 2.75 n1 of Tb-anti p4E-BP1 Antibody to 2397 n1 of LanthaScreen™ TR-FRET Dilution Buffer. Then, add 100 n1 of 0.5 M EDTA. 3. Prepare 4× Substrate/Enzyme Solution by first adding 72 n1 of GFP-4E-BP1 (22 nM) to 926 n1 of 1× Assay Buffer. Then, add 1.6 n1 of mTOR (0.45 mg/mL). 4. Prepare ATP Solution by adding 3.2 n1 of 10 mM ATP to 1997 n1 of 1× Assay Buffer. Serial Dilution of Inhibitors (16 Point Curve): Note: It is recommended that inhibitors be serially diluted in DMSO, then diluted to a 4× working concentration with 1× Assay Buffer. The below procedure describes dilution of compounds in a 96-well format prior to transfer to a 384-well format for kinase assays. This procedure calls for dilution of the compounds in 2 adjacent columns of a 96-well plate, which upon transfer to a single column of a 384-well plate with an 8-channel pipette will align the samples in order of concentration. 1. Dispense 40 n1 of DMSO to two adjacent columns of a 96 well plate per compound (e.g. columns 1 and 2). 2. Add 10 n1 of inhibitor stock (10 mM) to the first well of the first column (A1) and mix. 3. Remove 10 n1 from A1 and transfer to the adjacent well in the next column (B1) and mix. 4. Remove 10 n1 from B1 and transfer to the next well in the first column (B2) and mix. 5. Repeat this dilution pattern through well H1 and leave the last well (H2) as DMSO only. 6. Remove 4 n1 of diluted compounds and add to 96 n1 of 1× Assay Buffer in a 96-well plate making 4× compound dilutions. Kinase Reaction: 1. Add 2.5 μl of 4× compound dilutions from the first column of the 96-well plate to every other well of column 1 of a 384-well plate with an 8-channel pipette. Repeat for columns 2 and 3. 2. Add 2.5 n1 of 4× compound dilutions from the second column of the 96-well plate to the empty wells of column 1 of the 384-well plate with an 8-channel pipette. Repeat for columns 2 and 3. Note: This procedure aligns the compound dilutions in order of concentration. 3. Add 2.5 n1 of 4× Enzyme/Substrate Solution to all columns 1-6. 4. Preincubate for 30 min. at RT (shaker). 5. Add 5 n1 of ATP Solution to all wells to start reactions. 6. Shake the assay plate on a plate shaker for 30 seconds. 7. Incubate the assay plate for one hour at room temperature (20-25° C.). Stop Step and Fluorescence Detection: 1. Add 10 n1 of Antibody/EDTA Solution to each well in columns 1-9. 2. Shake the assay plate on a plate shaker for 30 seconds. 3. Incubate the assay plate for one hour at room temperature (20-25° C.). 4. Measure the GFP (FRET) and terbium (reference) emission signals on a fluorescence plate reader (e.g. Perkin Elmer Envision). Data Analysis: 1. Calculate the emission ratio for each sample by dividing the GFP (FRET) signal by the terbium (reference) signal. 2. Plot the concentration of each compound versus the emission ratio. Determine the concentration of compound required to reach 50% of the maximum signal (IC50). Determination of IC50 values can be obtained by curve fitting (sigmoidal dose response, variable slope) using Prism software from GraphPad). Inhibition of Proliferation: CyQuant PC-3 Description:
The CyQuant NF assay is based on measurement of cellular DNA content via fluorescent dye binding. Because cellular DNA content is highly regulated, it is closely proportional to cell number. […]

[2] = biological target: T1, FRAP1 (mTOR) kinase (Homo sapiens, UniProt P42345); experiment: Inhibition of mTOR-induced p-4E-BP1 phosphorylation (TR-FRET mTOR Activity Kit; Invitrogen); assay type: biochemical; details: 400 nM GFP-4E-BP1 substrate, ~150 ng/mL mTOR, one hour at room temperature
T1 construct: purchased Invitrogen PV4753
Excerpt: Inhibition of mTOR-Induced p-4E-BP1 Phosphorylation (TR-FRET mTOR Activity Kit; Invitrogen)
as §1, with “Description: […]” for “Description:”

T1 sequence (P42345 1360-2549 limits assumed): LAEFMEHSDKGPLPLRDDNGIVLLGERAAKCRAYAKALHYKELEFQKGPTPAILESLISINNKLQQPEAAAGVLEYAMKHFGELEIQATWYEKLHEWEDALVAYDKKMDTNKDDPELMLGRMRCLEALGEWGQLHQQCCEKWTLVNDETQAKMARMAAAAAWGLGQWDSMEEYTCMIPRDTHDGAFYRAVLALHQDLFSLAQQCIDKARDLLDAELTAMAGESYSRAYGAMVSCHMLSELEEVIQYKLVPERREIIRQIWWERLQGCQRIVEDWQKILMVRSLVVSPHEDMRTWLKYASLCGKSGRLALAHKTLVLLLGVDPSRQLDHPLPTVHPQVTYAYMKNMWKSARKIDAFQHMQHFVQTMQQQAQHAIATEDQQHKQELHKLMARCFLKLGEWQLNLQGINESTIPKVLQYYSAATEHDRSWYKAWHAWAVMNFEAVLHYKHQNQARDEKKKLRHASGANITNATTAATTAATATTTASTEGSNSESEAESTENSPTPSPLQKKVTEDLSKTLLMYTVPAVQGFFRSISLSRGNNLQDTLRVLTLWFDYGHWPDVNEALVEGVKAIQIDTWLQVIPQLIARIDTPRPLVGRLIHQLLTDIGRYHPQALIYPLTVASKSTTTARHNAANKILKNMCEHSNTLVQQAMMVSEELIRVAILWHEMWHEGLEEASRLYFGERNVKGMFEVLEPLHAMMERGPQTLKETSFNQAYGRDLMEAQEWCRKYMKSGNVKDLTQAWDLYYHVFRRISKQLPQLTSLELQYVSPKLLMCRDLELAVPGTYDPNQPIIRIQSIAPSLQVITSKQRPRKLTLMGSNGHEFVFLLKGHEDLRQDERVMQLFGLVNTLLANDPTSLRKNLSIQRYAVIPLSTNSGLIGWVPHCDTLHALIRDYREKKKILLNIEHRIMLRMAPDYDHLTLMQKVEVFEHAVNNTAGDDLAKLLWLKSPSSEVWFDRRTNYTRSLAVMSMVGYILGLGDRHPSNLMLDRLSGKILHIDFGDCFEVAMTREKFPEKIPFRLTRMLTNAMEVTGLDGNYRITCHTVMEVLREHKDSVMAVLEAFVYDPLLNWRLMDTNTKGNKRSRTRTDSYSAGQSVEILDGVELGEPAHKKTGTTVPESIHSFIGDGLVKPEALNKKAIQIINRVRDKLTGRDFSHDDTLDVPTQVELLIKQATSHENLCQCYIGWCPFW

CCc1ccccc1-n1nc(-c2c[nH]cn2)c2c1-c1sc(NC(C)=O)nc1CCC2 [Example B-118, N-[1-(2-Ethyl-phenyl)-3-(1H-imidazol-4-yl)-1,4,5,6-tetrahydro-9-thia-1,2,7-triaza-cyclopenta[e]azulen-8-yl]-acetamide]
EC50 [1]: 55 nM
IC50 [2]: 17 nM

CCCn1nc(-c2ccc(C)nc2)c2c1-c1sc(NC(C)=O)nc1CCC2 [Example B-92]
EC50 [1]: 221 nM
IC50 [2]: 152 nM

CNc1ccc(-c2nn(-c3ccccc3F)c3c2CCCc2nc(NC(C)=O)sc2-3)cn1 [Example B-81, N-[1-(2-Fluoro-phenyl)-3-(6-methylamino-pyridin-3-yl)-1,4,5,6-tetrahydro-9-thia-1,2,7-triaza-cyclopenta[e]azulen-8-yl]-acetamide]
EC50 [1]: 23 nM
IC50 [2]: 41 nM

CNc1ccc(-c2nn(-c3ccncc3C)c3c2CCCc2nc(NC(C)=O)sc2-3)cn1 [Example B-85, N-[3-(6-Methylamino-pyridin-3-yl)-1-(3-methyl-pyridin-4-yl)-1,4,5,6-tetrahydro-9-thia-1,2,7-triaza-cyclopenta[e]azulen-8-yl]-acetamide]
EC50 [1]: 76 nM
IC50 [2]: 24 nM

COCCC(=O)Nc1nc2c(s1)-c1c(c(-c3ccc(N)nc3)nn1-c1ccccc1C)CCC2 [Example B-103, N-[3-(6-Amino-pyridin-3-yl)-1-o-tolyl-1,4,5,6-tetrahydro-9-thia-1,2,7-triaza-cyclopenta[e]azulen-8-yl]-3-methoxy-propionamide]
EC50 [1]: 87 nM
IC50 [2]: 37 nM

CCNc1ccc(-c2nn(-c3ccccc3F)c3c2CCCc2nc(NC(C)=O)sc2-3)cn1 [Example B-76, N-[3-(6-Ethylamino-pyridin-3-yl)-1-(2-fluoro-phenyl)-1,4,5,6-tetrahydro-9-thia-1,2,7-triaza-cyclopenta[e]azulen-8-yl]-acetamide]
EC50 [1]: 79 nM
IC50 [2]: 31 nM

CCNc1ccc(-c2nn(-c3ccccc3C)c3c2CCCc2nc(NC(=O)CCc4nccn4C)sc2-3)cn1 [Example B-72]
EC50 [1]: 298 nM
IC50 [2]: 84 nM

CC(=O)Nc1nc2c(s1)-c1c(c(-c3c[nH]c(C)n3)nn1-c1ccccc1C)CCC2 [Example B-120, N-[3-(2-Methyl-1H-imidazol-4-yl)-1-o-tolyl-1,4,5,6-tetrahydro-9-thia-1,2,7-triaza-cyclopenta[e]azulen-8-yl]-acetamide]
EC50 [1]: 250 nM
IC50 [2]: 65 nM

CCNc1ccc(-c2nn(-c3ccccc3C)c3c2CCCc2nc(NC(=O)CCCN(C)C)sc2-3)cn1 [Example B-70]
EC50 [1]: 284 nM
IC50 [2]: 62 nM

CCCn1nc(-c2ccc(N)nc2)c2c1-c1sc(NC(C)=O)nc1CCC2 [Example B-131, N-[3-(6-Amino-pyridin-3-yl)-1-propyl-1,4,5,6-tetrahydro-9-thia-1,2,7-triaza-cyclopenta[e]azulen-8-yl]-acetamide]
EC50 [1]: 57 nM
IC50 [2]: 17 nM

CCn1nc(-c2ccc(N)nc2)c2c1-c1sc(NC(C)=O)nc1CCC2 [Example B-130, N-[3-(6-Amino-pyridin-3-yl)-1-ethyl-1,4,5,6-tetrahydro-9-thia-1,2,7-triaza-cyclopenta[e]azulen-8-yl]-acetamide]
EC50 [1]: 178 nM
IC50 [2]: 19 nM

CCNc1ccc(-c2nn(-c3ccccc3C)c3c2CCCc2nc(NC(C)=O)sc2-3)cn1 [Example B-07, N-[3-(6-Ethylamino-pyridin-3-yl)-1-o-tolyl-1,4,5,6-tetrahydro-9-thia-1,2,7-triaza-cyclopenta[e]azulen-8-yl]-acetamide]
EC50 [1]: 128 nM
IC50 [2]: 55 nM

CNc1ccc(-c2nn(-c3ccccc3F)c3c2CCCc2nc(NC(=O)N(C)C)sc2-3)cn1 [Example B-43]
EC50 [1]: 191 nM
IC50 [2]: 141 nM

CC(=O)Nc1nc2c(s1)-c1c(c(-c3ccc(N)nc3)nn1-c1ccccc1Cl)CCC2 [Example B-64, N-[3-(6-Amino-pyridin-3-yl)-1-(2-chloro-phenyl)-1,4,5,6-tetrahydro-9-thia-1,2,7-triaza-cyclopenta[e]azulen-8-yl]-acetamide]
EC50 [1]: 82 nM
IC50 [2]: 9 nM

CCNc1ccc(-c2nn(-c3cccnc3)c3c2CCCc2nc(NC(C)=O)sc2-3)cn1 [Example B-127]
EC50 [1]: 137 nM
IC50 [2]: 83 nM

— US8288379B2, “Thia-triaza-cyclopentazulenes” (Boehringer Ingelheim International GmbH, priority 2009, dated 2012)
